Experimental data reported in PMC11707430, “Novel antibiotics against Staphylococcus aureus without detectable resistance by targeting proton motive force and FtsH” (MedComm, 2025).

Experiments:
WP2uvrA (pKM101) = test: Ames test; type: cell-based, E. coli
Method: Ames test. Genotoxicity of the compounds was determined by Ames Kit (IPHASE, Beijing, China) containing Salmonella typhimurium (TA97a, TA98, TA100, and TA1535) and E. coli WP2 uvrA (pKM101). Diclofenac and 2-aminofluorene were used as positive controls for TA97a and TA98. Methyl methanesulfonate and 2-aminofluorene were used as positive controls for TA100. Methyl methanesulfonate and 2-aminoanthracene were used as positive controls for WP2 uvrA (pKM101). NaN3 and 2-aminoanthracene were used as positive controls for TA1535. The bottom and top layer culture medium, and S9 mixed solution were prepared according to the manufacturer’s instructions. After incubation at 37℃ for 48h, the colonies were counted.

S. aureus = test: Peritonitis-sepsis model; type: in vivo, ICR mice; settings: i.p., 24 h postinfection
Method: Peritonitis-sepsis model. Six to seven-week-old female ICR mice were included. […] Mice were injected with 500 μL of the suspension in the presence of 5% mucin by i.p.. An hour post-infection, the mice were administered with: 1) EL+ethanol, 2) […]-0546 (30 mg/kg), and 3) STK848198 (30 mg/kg) alone or in combination with ampicillin (AMP, 25 mg/kg)^38 or amikacin (AMK, 25 mg/kg).

S. aureus biofilm = test: Biofilm determination by XTT assay; type: cell-based
Method: Biofilm determination by XTT assay. To determine the biofilm inhibition, overnight cultures of S. aureus were diluted with TSB containing 2-fold diluted antimicrobials at the ratio of 1: 100 and added to a 96-well plate. After incubation statically at 37 ℃ for 24h, the supernatant was carefully removed and washed with PBS. (2,3-Bis-(2-methoxy-4-nitro-5-sulfophenyl)-2H-tetrazolium-5-carboxanilide) (XTT, 0.2 mg/ml) and Phenazin (methylsufate) (PMS, 0.02 mg/ml) were mixed with 1× PBS and added to each well of the 96-well plate (100 μL/well). The plate was then incubated for 3h in the dark, and the absorbance was measured at 490 nm (A490nm). For biofilm eradication, overnight cultures of S. aureus were diluted with fresh TSB at 1:100 and incubated for 24h to pre-form biofilms. Subsequently, the supernatant was removed and washed with PBS, and 200 μL of TSB in the presence of 2-fold diluted antimicrobials was added to each well. After incubation at 37 ℃ for 24h, the supernatant was removed and stained with XTT as described above^7.

S. aureus ATCC 43300 [1] = test: Consecutive resistance inducing assay; type: cell-based; settings: sub-MIC (1/2×MIC), after 20 days of treatment
Method: Resistance inducing assay. Consecutive and one-step resistance experiments were performed to assess the resistance-inducing ability of the compounds against S. aureus. For consecutive resistance assay, the MICs of compounds and ciprofloxacin (CIP) were determined on the first day. […] […] […] And the antimicrobial activity of the compounds against the CIP-induced strains were assessed by microdilution assay as described above. For one-step resistance assay, overnight cultured S. aureus was adjusted to a final concentration of approximately OD630=0.5 with sterile saline. One hundred microliters of the bacterial suspension were uniformly spread in pre-prepared MH agar plates containing a specific concentration of compounds. Rifampicin (RFP) was used as a positive control. The viable cells were counted on the plates after incubation at 37°C for 48h. The frequency of spontaneous drug resistance mutation was defined as the ratio of the number of resistant CFU counts to the initial CFU counts^3.

S. aureus ATCC 43300 [2] = test: Periprosthetic joint infection (PJI) model; type: in vivo, ICR mice; settings: i.p.
[3] = Liver microsomal metabolism analysis; type: in vitro ADME; settings: human; liver microsomes in vitro
Method: Liver microsomal metabolism analysis. Human liver microsome (20 mg protein/mL) was purchased from IPHASE (Beijing, China). One microliter of C218-0546 or STK848198 (200 μM) was incubated with 2 μL of liver microsome in the presence or absence of NADPH. Phenacetin (100 μM) was used as a positive control. After incubation at 37℃ for 0, 15, 30, 45, 60 and 90 min, respectively, the samples were cooled on ice and added with 500 μL of stop solution. The remained compounds were quantified with a LC-MS (Triple Quad™ 5500, AB SCIEX, USA).

S. aureus ATCC 43300 [4] = test: S. aureus-related abscess model; type: in vivo, ICR mice; settings: STK848198 combined with AMP, s.c.
Method: S. aureus-related abscess model. Six to seven-week-old female, specific pathogen free outbred ICR mice were anesthetized with 1% sodium pentobarbital (50 mg/kg). The back hair was shaved with an electric razor. A 50 μL of S. aureus ATCC 43300 suspension containing 1× 10^8 CFU/ml cells was subcutaneously injected (s.c.) into the back of the mice. The mice were randomized into four groups (N = 5-6 mice per group): (1) Vehicle group, (2) C218-0546 (30 mg/kg) or STK848198 (30 mg/kg) treatment group, (3) Amikacin (25 mg/kg) treatment group, (4) C218-0546 ([…]) treatment group. Each group was administrated by s.c. after 1h post infection. The mice were sacrificed at 24h post infection, and their lesions were removed and homogenized for viable bacterial cells counting. Meanwhile, the lesions were dislocated and immersed in 4% paraformaldehyde for hematoxylin-eosin (H&E) staining, Giemsa staining and immunohistochemical analysis, respectively^22.

Cc1nc2c(-c3ccc(Cl)cc3)cnn2c(O)c1Cc1ccccc1 [STK848198]
CFU(x±SD) (WP2uvrA (pKM101); +S9, 25 μg/well): 29 ±4 CFU
Fold Change (WP2uvrA (pKM101); +S9, 25 μg/well): 0.9
CFU(x±SD) (WP2uvrA (pKM101); +S9, 50 μg/well): 26 ±4 CFU
Fold Change (WP2uvrA (pKM101); +S9, 50 μg/well): 0.8
CFU(x±SD) (WP2uvrA (pKM101); +S9, 100 μg/well): 26 ±3 CFU
Fold Change (WP2uvrA (pKM101); +S9, 100 μg/well): 0.8
CFU(x±SD) (WP2uvrA (pKM101); +S9, 200 μg/well): 29 ±3 CFU
Fold Change (WP2uvrA (pKM101); +S9, 200 μg/well): 0.9
CFU(x±SD) (WP2uvrA (pKM101); +S9, 400 μg/well): 28 ±3 CFU
Fold Change (WP2uvrA (pKM101); +S9, 400 μg/well): 0.9
CFU(x±SD) (WP2uvrA (pKM101); -S9, 25 μg/well): 22±2 CFU
Fold Change (WP2uvrA (pKM101); -S9, 25 μg/well): 1
CFU(x±SD) (WP2uvrA (pKM101); -S9, 50 μg/well): 23±4 CFU
Fold Change (WP2uvrA (pKM101); -S9, 50 μg/well): 1
CFU(x±SD) (WP2uvrA (pKM101); -S9, 100 μg/well): 21±1 CFU
Fold Change (WP2uvrA (pKM101); -S9, 100 μg/well): 0.9
CFU(x±SD) (WP2uvrA (pKM101); -S9, 200 μg/well): 24±3 CFU
Fold Change (WP2uvrA (pKM101); -S9, 200 μg/well): 1
CFU(x±SD) (WP2uvrA (pKM101); -S9, 400 μg/well): 23±1 CFU
Fold Change (WP2uvrA (pKM101); -S9, 400 μg/well): 1
bacterial loads in liver, spleen, lung, and kidney (S. aureus; STK848198 30 mg/kg combined with AMP 25 mg/kg): significantly reduced the bacterial loads
bacterial loads in organs (S. aureus; single use, vs vehicle): no statistical difference
concentration inhibiting biofilm viability (S. aureus biofilm; biofilm inhibition): 0.125 µg/mL
concentration reducing preformed biofilm viability (S. aureus biofilm; preformed biofilm): 0.5 µg/mL
MIC increasement after sub-MIC treatment (S. aureus ATCC 43300 [1]): 0 fold
bacterial viable cell loads in infected joint (S. aureus ATCC 43300 [2]; day 5, AMP 25 mg/kg combined with STK848198 30 mg/kg): effectively reduce the bacterial viable cell loads
bacterial loads in the joint and its surrounding tissue (S. aureus ATCC 43300 [2]; day 7, alone or in combination): reduce the bacterial loads
half-life [3]: 43.6 min
in vivo synergy, viable cell counts in abscess (S. aureus ATCC 43300 [4]): exhibited synergy
